Reference: patent US11123334B2 (priority 2018, dated 2021)

Key:
rhesus monkeys [1] = assay: Heroin-induced respiratory depression, head plethysmograph, seated monkeys; details: for duration in reversing and protecting against heroin-induced respiratory depression: FIG. 2; for antagonism of respiratory-depressant effects of heroin: day after (24 hours after) antagonist administration
rhesus monkeys [2] = assay: Intravenous drug self-administration (heroin or cocaine), fixed-ratio 30 schedule; assay type: in vivo; details: for duration of action on responding for heroin (in words): after a single administration; for responding for cocaine: naltrexone 0.032 mg/kg, MCAM 0.32 mg/kg, cocaine 0.032 mg/kg/infusion; for responding for heroin: session following s.c. pretreatment, heroin 0.0032 mg/kg/infusion
μ opioid receptors = target: T1, μ opioid receptors (Mus musculus, UniProt P42866); details: cited from earlier work
T1 construct: host or cells: live mouse (endogenous receptor)
T1 sequence (P42866 whole entry): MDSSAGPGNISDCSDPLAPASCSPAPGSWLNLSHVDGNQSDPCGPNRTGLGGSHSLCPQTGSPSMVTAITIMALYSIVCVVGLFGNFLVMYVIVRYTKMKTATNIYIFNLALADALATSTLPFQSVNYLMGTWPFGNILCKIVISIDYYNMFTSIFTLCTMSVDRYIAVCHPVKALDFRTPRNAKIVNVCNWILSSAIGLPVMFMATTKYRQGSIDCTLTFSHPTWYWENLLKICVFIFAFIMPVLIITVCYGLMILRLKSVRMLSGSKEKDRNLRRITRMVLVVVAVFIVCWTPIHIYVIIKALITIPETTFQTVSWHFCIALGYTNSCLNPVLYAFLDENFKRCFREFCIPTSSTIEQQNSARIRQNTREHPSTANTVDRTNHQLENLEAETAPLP

| Structure (SMILES) | duration in reversing and protecting against heroin-induced respiratory depression (rhesus monkeys [1]) | decrease of respiration by heroin (rhesus monkeys [1]; monkeys breathing air, largest heroin dose tested, s.c.) | duration of action on responding for heroin (in words) (rhesus monkeys [2]) | time responding for heroin remained decreased (rhesus monkeys [2]; after a single injection of antagonist) | responding for cocaine (rhesus monkeys [2]) | responding for heroin (rhesus monkeys [2]) | antagonism of morphine (μ opioid receptors; 48 hours later) | effect on antinociception of 1000 mg/kg morphine (μ opioid receptors; one hour after administration) | reversal of opioid agonist side effects (respiratory depression) (rhesus monkeys [1]; 0.32 mg/kg subcutaneously, monkeys received heroin 0.1-1.0 mg/kg) | respiratory-depressant effects of heroin after antagonist (rhesus monkeys [1]; 4 days after administration of antagonist) | antagonism of respiratory-depressant effects of heroin (rhesus monkeys [1]) | duration of action on responding for heroin (in words) (rhesus monkeys [2]; listed as Naltrexone) |
| --- | --- | --- | --- | --- | --- | --- | --- | --- | --- | --- | --- | --- |
| C=CCN1CC[C@]23c4c5ccc(O)c4O[C@H]2C(=O)CC[C@@]3(O)[C@H]1C5 [naloxone, reference compound] | short duration | – | – | – | – | – | – | – | – | – | – | – |
| CC(=O)Oc1ccc2c3c1O[C@H]1[C@@H](OC(C)=O)C=C[C@H]4[C@@H](C2)N(C)CC[C@@]341 [heroin, reference compound] | – | ≤ 70 % of control | – | – | – | – | – | – | – | – | – | – |
| Cc1ccc(/C=C/C(=O)N[C@@]23CCC(=O)[C@@H]4Oc5c(O)ccc6c5[C@@]42CCN(CC2CC2)[C@@H]3C6)cc1 [MCAM, methocinnamox] | long duration | – | more than one week | up to 8 days | did not affect responding for cocaine | decreased responding for heroin | marked antagonism of morphine | prevented any antinociceptive effect | reversed | not affected | continued to antagonize | – |
| O=C1CC[C@@]2(O)[C@H]3Cc4ccc(O)c5c4[C@@]2(CCN3CC2CC2)[C@H]1O5 [naltrexone, reference compound] | – | – | less than one day | – | did not affect responding for cocaine | decreased responding for heroin | – | – | – | – | no longer effective | returning to baseline levels the next day |
